From PubChem BioAssay (NCI) come the findings set out here.

As a reminder, the TGI is the concentration giving total growth inhibition. The GI50 is the concentration giving 50% growth inhibition.

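How tested: cells in 96-well plates exposed to compound for 48 hours at five concentrations. At the GI50, growth is halved. The concentration for full growth arrest is given as TGI.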

Holding throughout (test): DTP human tumour cell line panel, 48 h
The subject of assay [1] is NCI-H522 lung.
In assay [2] the test system is UACC-62 melanoma.
Assay [3] concerns SN12C renal.
Assay [4] has as its system RXF 393 renal.
For assay [5], the system named is SF-268 CNS.
The subject of assay [6] is DMS 273 small cell lung.
The subject of assay [7] is SK-MEL-5 melanoma.
In assay [8] the test system is MALME-3M melanoma.
Assay [9] has as its system DLD-1 colon.
Assay [10] has as its system CAKI-1 renal.

Take `COc1ccc(OC)c(N2CC(N)C2=O)c1` (centres undefined): the TGI in assay [1], in [2], in assay [3], in [4], in [5] and in [6] was above 100 µM throughout. Also, the TGI in assay [7] and in [8] was above 100 µM each time.

For `CC(=O)OCCOCNC(=S)N/N=C(\C)c1cnccn1`, the TGI is 97 µM in assay [1]; 36.5 µM in assay [2]; above 100 µM in assay [3]; above 100 µM in assay [4]; above 100 µM in [5]; 67 µM in assay [6]. The total growth inhibition concentration (TGI) was 32.7 µM in assay [7], above 100 µM in [8] and above 100 µM in assay [9].

Consider `CCCCN(CCCC)C(=O)C(=O)C(C(=O)c1ccc(OC)cc1)c1ccc(OC)cc1` (centres undefined), for which the TGI in assay [2], in assay [10], in assay [3], in assay [4], in [5] and in [7] was above 100 µM throughout. Further, the TGI in assay [8] and in [9] was above 100 µM throughout.

Consider `Cc1ccc(/C=C/C(=O)CCN(C)C)cc1`, for which the TGI was 28.2 µM in assay [2]; 26.8 µM in assay [10]; 32.1 µM in assay [3]; 41.6 µM in [4]; 47.5 µM in assay [5]; 25.6 µM in assay [6]. The figures for the concentration for total growth inhibition (TGI) in assay [7], in [8] and in [9] were 34.4 µM, 39.7 µM and 33.7 µM, respectively.

Take `O=C(/C=C/c1ccc([N+](=O)[O-])cc1)c1ccc(NCc2nc3ccccc3[nH]2)cc1`: the TGI was 11.9 µM in assay [1]; 26 µM in [2]; 21.2 µM in [10]; 14.8 µM in [3]; 26.6 µM in assay [5]; 13.6 µM in assay [6]. The results for the TGI in assay [7], in assay [8] and in assay [9] were 16.3 µM, 28.3 µM and 15.7 µM, respectively.

Turning to `COc1nc(NC2OC(COC(C)=O)C(OC(C)=O)C(OC(C)=O)C2OC(C)=O)c2c(OC(C)=O)cc(=O)oc2n1` (centres undefined), the TGI in assay [2], in assay [10], in assay [3], in assay [4], in assay [6] and in assay [7] was above 100 µM each time. In addition, the TGI in [8] and in assay [9] was above 100 µM in each case.

As for `CCc1c(OC(C)=O)c2c(NC3OCC(OC(C)=O)C(OC(C)=O)C3OC(C)=O)nc(SC)nc2oc1=O` (centres undefined), the TGI in assay [2], in assay [10], in assay [3], in assay [4], in assay [7] and in [8] was above 100 µM each time. In [9], this compound returned a concentration for total growth inhibition (TGI) above 100 µM.

For `CC(=O)O/N=C(/C)c1ccccc1O`, the TGI in assay [1], in assay [2], in assay [10], in assay [3], in assay [4] and in assay [5] was above 100 µM in each case. For the same compound, the TGI in assay [6], in assay [8] and in assay [9] was above 100 µM throughout.

As to `Cc1ccc(Oc2ccc(C)cc2N)cc1`, the TGI in [2], in assay [3], in [4], in assay [5], in [6] and in assay [7] was above 100 µM each time. In addition, the TGI in assay [8] and in [9] was above 100 µM each time.

Consider `CCCCCC[C@@H]1CCC2C(CO)[C@@H](O)CC[C@@H]2C1` (some centres undefined), for which the concentration for total growth inhibition (TGI) in assay [1] was determined as 31.5 µM; in [2], 38.6 µM; in [3], 30.6 µM; in [5], 32.6 µM; in assay [6], 39.4 µM; in [7], 34.2 µM. The TGI in [8] was determined as 36.1 µM; in [9], 34.6 µM.

With `c1ccc(NCn2cnc3ccccc32)cc1`, the TGI in assay [1], in [2], in assay [3], in [4], in assay [5] and in [6] was above 100 µM each time. The total growth inhibition concentration (TGI) in assay [7], in [8] and in assay [9] was above 100 µM each time.

Turning to `Nc1c(C(=O)Nc2cccc(C(F)(F)F)c2)sc2nc3c(cc12)CCCCC3`, the GI50 in assay [1] is 2.52 µM; in [2], 2.69 µM; in assay [10], 2.08 µM; in [3] it was 3.41 µM; in [4] it was 1.84 µM; in assay [5], 2.99 µM. For the same compound, the GI50 is 1.18 µM in assay [7] and 3 µM in assay [8]. Besides, the TGI in assay [1] worked out at 17.7 µM; in assay [2], 16.7 µM; in assay [10], 10.1 µM; in assay [3], 19.3 µM; in [4] it was 4.86 µM; in assay [5], 16.2 µM. Besides, the total growth inhibition concentration (TGI) worked out at 12 µM in assay [7] and 9.49 µM in [8].

Consider `COc1cccc(-c2nc(-c3ccc(NC(=O)OC(C)C)cc3)[nH]c2-c2ccnc(Br)c2)c1`, for which the GI50 in assay [1] is 2.48 µM; in assay [2], 1.98 µM; in assay [10], 2.49 µM; in assay [3], 2.94 µM; in assay [4] it was 0.282 µM; in [5], 3.35 µM. Also, the GI50 in assay [7] is 1.88 µM; in [8], 2.23 µM. Also, the TGI was 9.01 µM in assay [1]; 4.87 µM in [2]; above 100 µM in assay [10]; above 100 µM in assay [3]; 0.87 µM in assay [4]; above 100 µM in assay [5]. The TGI in assay [7] was determined as 3.65 µM; in assay [8], 7 µM.

Turning to `O=C1CCCCN1c1ccccc1C#C/C=C\C#Cc1ccccc1C(F)(F)F`, the GI50 is 1.19 µM in assay [1]; 1.44 µM in assay [2]; 1.68 µM in assay [10]; 1.59 µM in [3]; 0.526 µM in assay [4]; 3.81 µM in [5]. Besides, the GI50 in [7] is 2.75 µM; in assay [8], 2.29 µM. For the same compound, the TGI in assay [1] was 3.1 µM; in assay [2], 4.86 µM; in [10], 9.83 µM; in assay [3], 3.67 µM; in assay [4], 2.73 µM; in assay [5] it was above 50 µM. Besides, the TGI in assay [7] stood at 12.7 µM; in [8], 39.2 µM.

Regarding `CCN(Cc1ccc(F)cc1)c1cc(Cl)c(CO)c(Cl)c1`, the GI50 is 10.8 µM in assay [1]; 4.98 µM in [2]; 13.5 µM in [10]; 13.3 µM in [3]; 8.71 µM in assay [4]; 13.6 µM in assay [5]. In addition, the GI50 in assay [7] is 13.5 µM; in assay [8], 17.8 µM. Also, the TGI in [1] worked out at 25.7 µM; in assay [2], 17.9 µM; in [10], 32.1 µM; in assay [3] it was 26.8 µM; in [4] it was 21.6 µM; in [5] it was 27.7 µM. Further, the TGI in assay [7] is 26.5 µM; in [8], 36.1 µM.

In the case of `Cc1nnc(NC(=O)c2nc(S(=O)(=O)Cc3ccc(F)cc3)ncc2Cl)s1`, the GI50 is 0.729 µM in assay [1]; 1.61 µM in assay [2]; 1.78 µM in assay [10]; 2.39 µM in assay [3]; 1.85 µM in [4]; 3.88 µM in [5]. In addition, the GI50 in assay [7] was 17 µM; in assay [8], 1.8 µM. Besides, the TGI in assay [1] came out at 2.46 µM; in assay [2], 3.01 µM; in assay [10], 3.24 µM; in [3], 6.56 µM; in [4], 3.51 µM; in [5], 16.8 µM. The figures for the TGI in assay [7] and in assay [8] were 31.4 µM and 3.48 µM, respectively.

As to `CC(C)(C)c1cc2c(O)c3cccc4c(=O)c5cccc6c5-c(c34)c2c(c1)c6=O`, the TGI was above 100 µM in assay [1]; above 100 µM in assay [2]; above 100 µM in assay [10]; above 100 µM in [3]; 97.8 µM in assay [4]; above 100 µM in assay [5]. Also, the TGI in [6], in assay [8] and in assay [9] was above 100 µM in each case.

For `CN1CC[C@@H](NC(=O)Nc2ccc(C#N)cc2)C[C@@H]1c1nc2ccccc2[nH]1`, the GI50 in assay [1] is above 100 µM; in assay [2], 98.8 µM; in assay [10], above 100 µM; in assay [3] it was above 78.9 µM; in assay [4] it was 40.5 µM; in assay [5] it was above 100 µM. The figures for the GI50 in [7] and in [8] were above 57.7 µM and above 100 µM, respectively. Moreover, the total growth inhibition concentration (TGI) in assay [1], in assay [2], in assay [10], in [3], in assay [4] and in assay [5] was above 100 µM throughout. Further, the total growth inhibition concentration (TGI) in [7] and in assay [8] was above 100 µM throughout.

Regarding `Cc1ccc(/C=C/C(=O)c2cccc3ccccc23)cc1`, the TGI in assay [1] was 34.2 µM; in [2] it was 33.7 µM; in [10] it was 32.8 µM; in assay [3], 27.4 µM; in [4] it was 26.2 µM; in assay [5] it was 33.1 µM. Besides, the concentration for total growth inhibition (TGI) in assay [6] came out at 47.2 µM; in assay [8] it was 28.6 µM.

On to `Nc1n[nH]c2cc(F)c([C@@H]3Nc4ccc5[nH]ncc5c4[C@H]4C5CCC(C5)[C@@H]34)cc12` (some centres undefined), for which the GI50 in assay [1] is 0.106 µM; in assay [2] it was 0.218 µM; in assay [10], 0.132 µM; in [3], 0.228 µM; in assay [4], 0.124 µM; in assay [5] it was 0.368 µM. Besides, the 50% growth inhibitory concentration (GI50) in [7] was 0.128 µM; in assay [8] it was 1.47 µM. Moreover, the TGI in assay [1] is 2.08 µM; in assay [2] it was 10 µM; in assay [10], 7.43 µM; in assay [3] it was 37.1 µM; in [4], 2.52 µM; in assay [5], 14.9 µM. Moreover, the TGI worked out at 0.355 µM in assay [7] and 28.3 µM in assay [8].

For `CCN1C(=O)N(c2ccccc2)C2NC(=S)N(/N=C/C=C/c3ccccc3OC)C21` (centres undefined), the concentration for 50% growth inhibition (GI50) was 0.0409 µM in assay [1]; 0.0698 µM in assay [2]; 0.0704 µM in [10]; 0.139 µM in assay [3]; 0.916 µM in assay [4]; 0.195 µM in [5]. Further, the GI50 in assay [7] is 0.099 µM; in assay [8] it was 0.722 µM. Further, the concentration for total growth inhibition (TGI) is 0.189 µM in [1]; above 100 µM in [2]; above 60.9 µM in assay [10]; above 42.2 µM in [3]; above 100 µM in assay [4]; above 100 µM in [5]. In addition, the values for the concentration for total growth inhibition (TGI) in assay [7] and in assay [8] were 0.607 µM and above 100 µM, respectively.

With `O=C(O)c1ccc2c(c1C(=O)O)C(=O)OC2(c1ccc(O)cc1)c1ccc(O)cc1`, the concentration for total growth inhibition (TGI) in [1], in assay [2], in [10], in assay [3], in assay [4] and in assay [5] was above 100 µM each time. Also, the total growth inhibition concentration (TGI) in assay [7] and in assay [8] was above 100 µM in each case.

As to `N#Cc1c[nH]n2c(N=Nc3ccc(Cl)cc3)c(O)nc12`, the GI50 in [1] was 26.9 µM; in assay [2], 17.2 µM; in assay [10], 85.9 µM; in assay [3], 24.1 µM; in assay [4], 29.7 µM; in [5], 20.6 µM. Also, the figures for the GI50 in [7] and in assay [8] were 20.8 µM and 41.6 µM, respectively. The concentration for total growth inhibition (TGI) in [1] is above 100 µM; in assay [2], 57 µM; in assay [10] it was above 100 µM; in assay [3], 57.3 µM; in [4] it was above 100 µM; in assay [5] it was 77.4 µM. Also, the TGI in [7] is 43.7 µM; in assay [8] it was above 100 µM.

For `CC(C)c1cc2c(cc1S(=O)(=O)O)[C@@]1(C)CCC[C@@](C)(C(=O)O)C1CC2` (some centres undefined), the TGI in assay [1], in assay [2], in assay [10], in assay [3], in [4] and in assay [5] was above 100 µM in each case. For the same compound, the TGI in assay [7] and in [8] was above 100 µM each time.
